Experimental data: the METLIN SMRT retention time set (Domingo-Almenara et al. 2019)

Experiment: gradient 5% acetonitrile 3 min, to 50% in 2 min, to 85% in 15 min, held 3 min, 100 µL/min
Conditions: column: Zorbax Extend-C18 2.1 x 50 mm; eluents: water / acetonitrile, 0.1% formic acid
Summary of the method: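 Mixtures of ~100 pure standards were chromatographed on a Zorbax Extend-C18 column (2.1 × 50 mm, 1.8 μm) at 100 μL/min using water and acetonitrile, each with 0.1% formic acid. Detection used a quadrupole time-of-flight mass spectrometer in positive and negative ionization mode, and data collection spanned 3 months. Retention time was obtained from adduct peaks picked computationally and each checked manually.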

| SMILES | RP-LC retention time [s] |
| --- | --- |
| Cc1cc(Cl)ccc1NC(=O)N1C[C@@H]2C[C@H](NS(=O)(=O)c3ccccc3)[C@H]1C2 | 922 |
| COc1ccc(NC(=O)Nc2cccc(-c3ccc(N4CCCCC4)nn3)c2)c(OC)c1 | 719 |
| CCc1ccc(Nc2c(C(=O)N3CCCCC3C)cnc3nc(C)ccc23)cc1 (stereo not given) | 674 |
| CCOC(=O)Cc1ccc(NC(=O)N2CCCC2c2cc(C)on2)cc1 (stereo not given) | 807 |
| CCN1c2ccc(C)cc2C(=O)NC12CCN(C(=O)Cc1cccc(OC)c1)CC2 | 802 |
| O=C(c1nccc2ccccc12)N1C[C@@H](CO)[C@H](c2ccccn2)C1 | 578 |
| CC(C)NC(=O)N1CCCC(c2cccc(C(=O)NCCC3=CCCCC3)c2)C1 (stereo not given) | 977 |
| COc1cc(-c2nc3ncccn3c2Nc2ccccc2)ccc1O | 633 |
| Cc1ccc(F)c(-n2nnc(C(=O)O)c2-c2ccncc2)c1 | 654 |
| Cc1ncsc1CN1CCC2(CC1)CC(Cc1ccc(F)cc1)CCO2 (stereo not given) | 556 |
| Cc1ccccc1C(=O)Nc1nc(-c2ccc3c(c2)N(C)C(=O)CO3)cs1 | 939 |
| O=C(Nc1cnc2ccccc2c1)c1cccc([N+](=O)[O-])c1 | 717 |
| COc1ccc2c(c1)C(O)(CC(=O)c1ccc(-c3ccc(Cl)cc3)o1)C(=O)N2 (stereo not given) | 797 |
| CCOC(=O)N1CCN(C(=O)C2CCC(CNS(=O)(=O)CC)CC2)CC1 (stereo not given) | 631 |
| O=C(N[C@H]1C[C@@H]2C[C@H]1N(C(=O)COc1cccc(Cl)c1)C2)c1cccnc1 | 656 |
| CCCNC(=O)C1CCCN(c2ccc(SCC(=O)Nc3c(C)cccc3CC)nn2)C1 (stereo not given) | 650 |
| CCc1nc(-c2csc(S(=O)(=O)N3CCC(C(=O)Nc4ccc(Cl)cc4)CC3)c2)no1 | 1070 |
| CCCn1ccc2sc(C)c(C(=O)NCc3ccccc3OCC)c2c1=O | 982 |
| Cn1nc(C(=O)NCc2cccs2)ccc1=O | 632 |
| COCCC(=O)Nc1ccc(-c2nc(Cn3nc(C)cc3C)c(C)o2)cc1 | 729 |
| C=CCn1nnnc1SCC(=O)Nc1ccc(C(=O)OC)cc1 | 701 |

| SMILES | RP-LC retention time [s] |
| --- | --- |
| COC(=O)C1CCN(C(=O)Cc2csc(Nc3ccc(F)cc3)n2)CC1 | 689 |
| Cc1cccc(Cn2c(CN3CCC(C(=O)NC(C)C)CC3)cc3ccccc32)c1 | 737 |
| COCCC(=O)N1CCN(c2ncccc2-c2nnc(C(C)C)o2)CC1 | 666 |
| CC(=O)N1c2nc(-c3ccccc3)nn2C2(CCCCC2)[C@@H]2CCCC[C@@H]21 | 1390 |
| COc1ccc(N2CCN(C(=O)CN3C(=O)c4ccccc4Sc4ncccc43)CC2)cc1 | 725 |
| Cc1ccccc1OCC1c2ccsc2CCN1C(=O)CN(CC1CCCO1)C(=O)NC(C)(C)C (stereo not given) | 1140 |
| CN(C)c1cnc(-n2cc(NC(=O)c3ccc(F)cc3)cn2)nc1 | 723 |
| Cc1ccc(N(C)C(=O)C2CCCN(S(=O)(=O)c3cc(-c4noc(C)n4)cs3)C2)cc1 (stereo not given) | 992 |
| CCc1ccc(NC(=O)C2CCCN2S(=O)(=O)c2ccc3c(c2)CCCC(=O)N3)cc1 (stereo not given) | 835 |
| CC1=NS(=O)(=O)N(Cc2ccccc2)C=C1C(=O)OCc1ccc(C(F)(F)F)cc1 | 1190 |
| Cc1cc(NC(=O)COc2cccc3c(=O)n(C)ccc23)no1 | 660 |
| Cc1nn(CC(=O)NCc2ccccn2)c(=O)c2nc(-c3ccccc3)sc12 | 633 |
| Cc1ccccc1NC(=O)Cn1cnc2onc(C)c2c1=O | 718 |
| C=CCNC(=O)NC1CCN(C2=NS(=O)(=O)C(c3ccc(C)cc3)=C2C)CC1 | 736 |
| CCCCC1CCC(C(=O)Nc2nc(-c3ccc4c(c3)NC(=O)CO4)cs2)CC1 (stereo not given) | 934 |
| CCC1Oc2ccc(S(=O)(=O)N3CCC(C(=O)N4CCCCCC4)CC3)cc2NC1=O (stereo not given) | 842 |
| CCCCNC(=O)c1cc(NC(=O)CC)cc2nc(C)ccc12 | 595 |
| COCC(O)Cn1ccnc1[N+](=O)[O-] (stereo not given) | 609 |
| Cc1ccc(Cn2c(=O)c(N3CCC(NC(=O)NC(C)C)CC3)nc3cccnc32)cc1 | 986 |
| COc1ccc(OC)c(-c2cn3ccn(-c4cccc(Cl)c4C)c(=O)c3n2)c1 | 924 |
| CCOc1cccc(C2CC(=O)NC3=C2C(=O)C(C(=O)OC)C(C)C3)c1 (stereo not given) | 750 |

| SMILES | RP-LC retention time [s] |
| --- | --- |
| Cc1nccn1-c1ccc(=O)n(CCNC(=O)c2cccc(C(F)(F)F)c2)n1 | 551 |
| CN(C)C(=O)c1cc2c(s1)CCC(C(=O)NCc1nc3ccccc3n1C)C2 (stereo not given) | 595 |
| Cc1cc(Cl)ccc1NC(=O)N1C[C@@H]2C[C@H](NC(=O)c3ccccc3)[C@H]1C2 | 907 |
| CCN1CCN(C(=O)Nc2ccc(C(=O)OC)cc2)c2cccnc21 | 621 |
| COc1ccc(OC)c(-c2ccc(=O)n(CCc3nc(-c4ccc(C)cc4)no3)n2)c1 | 1020 |
| Cc1cc(-c2nnc(-c3ccccc3)o2)c(C)n1CC(=O)NC1CCCCC1 | 883 |
| CC(C)c1nc(CNC(=O)c2ccccc2)no1 | 707 |
| COc1ccc2[nH]c(-c3ccccc3)c(CCNC(C)=O)c2c1 | 832 |
| Cc1ccc(NC(=O)Cn2nc(N3CCSCC3)c3ccccc3c2=O)cc1F | 976 |
| Cc1cc(C)cc(N2CC(c3nc(-c4ccc5c(c4)OCO5)no3)CC2=O)c1 (stereo not given) | 1040 |
| O=C(NCC1CCCCC1)C1CCCN(c2ccc(-c3ccccc3)nn2)C1 (stereo not given) | 762 |
| COc1ccc(NC(=O)c2cn(-c3cc(N(C)C)ncn3)cn2)cc1OC | 678 |
| Cc1ccc(NC(=O)N2CCc3[nH]cnc3C2c2ccncc2)cc1C (stereo not given) | 582 |
| CC(C)Cn1c(=O)c2ccccc2n(Cc2nc(-c3cccc(C(F)(F)F)c3)no2)c1=O | 1030 |
| CC(C)(C)c1csc(-c2csc(S(=O)(=O)NCCN3CCc4ccccc4C3)c2)n1 | 846 |
| Cc1nn(C(C)C(=O)NCCN(C)C)c(=O)c2nn(-c3ccccc3)c(C)c12 (stereo not given) | 601 |
| COCCCNC(=O)C1CCN(c2nccnc2Sc2cccc(C)c2)CC1 | 886 |
| Cc1cccc(-c2nocc2CCC(=O)O)c1 | 758 |
| Cc1ccc(NC(=O)c2cccn2Cc2noc(C)n2)cc1 | 856 |

More lines, now with the values ahead:

| RP-LC retention time [s] | SMILES |
| --- | --- |
| 1240 | CCc1ccc(S(=O)(=O)N2CCC(c3noc(-c4cccc(OC)c4)n3)CC2)cc1 |
| 806 | Cn1c(=O)c2nc(SCCC(=O)Nc3ccc(Br)cc3F)n(C)c2n(C)c1=O |
| 1040 | CCc1ccc(-c2csc(Nc3ccccn3)n2)cc1 |
| 584 | O=C(c1ccsc1)N1CCN(c2cc(-c3cccnc3)[nH]n2)CC1 |
| 1200 | Cc1ccc(N(C)S(=O)(=O)c2ccccc2-c2nc(-c3ccccc3)no2)cc1 |
| 870 | Cc1cccc(CN2CCCn3nc(C(=O)NCCc4ccco4)cc3C2=O)c1 |
| 738 | Cc1cc2[nH]c(C(=O)Nc3cc(F)cc(F)c3)c(CN3CCOCC3)c2s1 |
| 968 | CCN1C=C(C(=O)OCc2cccc(F)c2)C(C)=NS1(=O)=O |
| 881 | Cc1ccc(Nc2c(-c3ccccc3)nc3ccc(Br)cn23)cc1 |
| 885 | CC(C)n1c(=O)sc2cc(S(=O)(=O)N3CCC(C(=O)NCc4cccs4)CC3)ccc21 |
| 541 | O=C(NCc1ccccn1)C1CN(C(=O)c2c[nH]c3ccccc23)C1 |
| 662 | Cn1c(=O)cnc2ccc(N3CCOCC3)nc21 |
| 591 | COc1ccccc1NC(=O)N1CCC(CNC(=O)C(=O)Nc2cccnc2)CC1 |
| 723 | COc1ccccc1C(=O)N1CCCC1c1cc(C)on1 (stereo not given) |
| 830 | O=C(C1CC1)N1CCc2ccc(NS(=O)(=O)C3CCCCC3)cc21 |
| 848 | COC(=O)C1=CN(c2cc(OC)cc(OC)c2)c2ccccc2S1(=O)=O |
| 886 | O=C(Cn1ccc2ccc(N3CCOCC3)nc21)NCc1ccccc1Br |
| 583 | CS(=O)(=O)N1CCC(OC2CCN(C(=O)c3cccnc3)CC2)CC1 |
| 610 | O=C(CCc1c(-c2ccc(Br)cc2)nc2ccccn12)NC1CC1 |
| 578 | Fc1ccc(Nc2nc(NCC3CCCO3)nc3[nH]ncc23)cc1 (stereo not given) |
| 608 | Cc1cc(C)n(CCNC(=O)C(=O)Nc2cc(C)on2)n1 |
| 644 | CCn1nc(C)c(CCN(C)C(=O)Nc2cccc(C(=O)OC)c2)c1C |
| 1290 | COc1cccc(N2CCN(S(=O)(=O)c3cccc(-c4nc(-c5ccccc5)no4)c3)CC2)c1 |
| 783 | O=C(Cc1ccc(F)cc1)Nc1ccc(-c2cn3c(C(=O)N4CCCC4)csc3n2)cc1 |
| 718 | CCCNC(=O)c1cc(C)nc2ccc(Br)cc12 |
| 711 | COc1cc(NC(=O)N2CCC(c3nc(C(=O)N(C)C)c(C)o3)CC2)cc(OC)c1 |
| 828 | O=C(Nc1ccc2c(c1)OCCO2)C1CCN(C(=O)c2ccc(-c3noc(C4CC4)n3)cc2)CC1 |
| 635 | CCn1cc(CN2CC(Oc3ccc(-c4noc(-c5cccnc5)n4)cc3)C2)cn1 |
| 910 | CC1CCN(S(=O)(=O)c2cccn(CC(=O)N3CCCc4ccccc43)c2=O)CC1 |
